Test results taken from patent publication US7888464B2, “Hepatitis C virus inhibitors” (Bristol-Myers Squibb Company, priority 2006, dated 2011).
pEC50, pIC50: −log10 of the molar value. Like-named read-outs stand apart in the source and are kept apart here.

Columns and labels:
[1] = target: T1, HCV NS3/4A protease complex, BMS strain (genotype 1a) (UniProt P27958, species not given/STRAIN_BMS); assay: FRET peptide assay to monitor HCV NS3/4A proteolytic activity (BMS strain); assay type: biochemical; details: NS3/4A BMS strain, read-out: HCV Protease (IC50)
T1 construct: "DNA encoding the recombinant HCV NS3/4A protease complex (amino acids 1027 to 1711) for these strains" (said of H77 and J4L6S, not expressly of BMS); given for the H77/J4L6S constructs only
T1 sequence (P27958 1027-1657, stated change not applied, one chain of several): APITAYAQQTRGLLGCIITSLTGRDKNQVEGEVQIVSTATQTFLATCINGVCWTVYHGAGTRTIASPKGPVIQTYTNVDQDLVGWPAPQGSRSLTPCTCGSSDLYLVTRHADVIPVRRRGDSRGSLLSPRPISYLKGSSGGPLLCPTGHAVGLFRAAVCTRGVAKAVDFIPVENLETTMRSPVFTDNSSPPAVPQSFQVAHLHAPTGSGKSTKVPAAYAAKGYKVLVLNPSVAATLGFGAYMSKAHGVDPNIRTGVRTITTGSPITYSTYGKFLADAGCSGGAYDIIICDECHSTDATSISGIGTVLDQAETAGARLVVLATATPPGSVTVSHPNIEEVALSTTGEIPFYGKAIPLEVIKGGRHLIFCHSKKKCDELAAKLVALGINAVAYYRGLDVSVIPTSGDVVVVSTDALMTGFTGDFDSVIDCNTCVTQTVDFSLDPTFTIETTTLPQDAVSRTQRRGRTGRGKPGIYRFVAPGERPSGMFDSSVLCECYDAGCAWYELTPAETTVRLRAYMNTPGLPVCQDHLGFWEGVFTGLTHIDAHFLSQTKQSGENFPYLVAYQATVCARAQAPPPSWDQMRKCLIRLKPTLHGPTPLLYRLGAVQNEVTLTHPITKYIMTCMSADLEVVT
Excerpt: HCV NS3 protease complexes, derived from the BMS strain, H77 strain or J4L6S strain, were generated, as described below. These purified recombinant proteins were generated for use in a homogeneous assay (see below) to provide an indication of how effective compounds of the present disclosure would be in inhibiting HCV NS3 proteolytic activity.
Serum from an HCV-infected patient was obtained from Dr. T. Wright, San Francisco Hospital. An engineered full-length cDNA (compliment deoxyribonucleic acid) template of the HCV genome (BMS strain) was constructed from DNA fragments obtained by reverse transcription-PCR(RT-PCR) of serum RNA (ribonucleic acid) and using primers selected on the basis of homology between other genotype la strains. From the determination of the entire genome sequence, a genotype la was assigned to the HCV isolate according to the classification of Simmonds et al. (See P Simmonds, K A Rose, S Graham, S W Chan, F McOmish, B C Dow, E A Follett, P L Yap and H Marsden, J. Clin. Microbiol., 31(6), 1493-1503 (1993)). […] The infectious clones, H77 (1a genotype) and J4L6S (1b genotype) were obtained from R. Purcell (NIH) and the sequences are published in Genbank (AAB67036, see Yanagi, M., Purcell, R. H., Emerson, S. U. and Bukh, J. Proc. Natl. Acad. Sci. U.S.A. 94(16), 8738-8743 (1997); AF054247, see Yanagi, M., St Claire, M., Shapiro, M., Emerson, S. U., Purcell, R. H. and Bukh, J, Virology 244 (1), 161-172. (1998)).
The H77 and J4L6S strains were used for production of recombinant NS3/4A protease complexes. DNA encoding the recombinant HCV NS3/4A protease complex (amino acids 1027 to 1711) for these strains were manipulated as described by P. Gallinari et al. (see Gallinari P, Paolini C, Brennan D, Nardi C, Steinkuhler C, De Francesco R. Biochemistry. 38(17):5620-32, (1999)). Briefly, a three-lysine solubilizing tail was added at the 3′-end of the NS4A coding region. The cysteine in the P1 position of the NS4A-NS4B cleavage site (amino acid 1711) was changed to a glycine to avoid the proteolytic cleavage of the lysine tag. Furthermore, a cysteine to serine mutation was introduced by PCR at amino acid position 1454 to prevent the autolytic cleavage in the NS3 helicase domain. The variant DNA fragment was cloned in the pET21b bacterial expression vector (Novagen) and the NS3/4A complex was expressed in Escherichia. coli strain BL21 (DE3) (Invitrogen) following the protocol described by P. Gallinari et al. (see Gallinari P, Brennan D, Nardi C, Brunetti M, Tomei L, Steinkuhler C, De Francesco R., J. Virol. 72(8):6758-69 (1998)) with modifications. Briefly, the NS3/4A protease complex expression was induced with 0.5 millimolar (mM) Isopropyl β-D-1-thiogalactopyranoside (IPTG) for 22 hours (h) at 20° C. A typical fermentation (1 Liter (L)) yielded approximately 10 grams (g) of wet cell paste. The cells were resuspended in lysis buffer (10 mL/g) consisting of 25 mM N-(2-Hydroxyethyl)piperazine-N′-(2-Ethane Sulfonic acid) (HEPES), pH 7.5, 20% glycerol, 500 mM Sodium Chloride (NaCl), 0.5% Triton X-100, 1 microgram/milliliter (“μg/mL”) lysozyme, 5 mM Magnesium Chloride (MgCl2), 1 μg/ml DnaseI, 5 mM β-Mercaptoethanol (βME), Protease inhibitor-Ethylenediamine Tetraacetic acid (EDTA) free (Roche), homogenized and incubated for 20 minutes (min) at 4° C. The homogenate was sonicated and clarified by ultra-centrifugation at 235000 g for 1 hour (h) at 4° C. Imidazole was added to the supernatant to a final concentration of 15 mM and the pH adjusted to 8.0. The crude protein extract was loaded on a Nickel-Nitrilotriacetic acid (Ni-NTA) column pre-equilibrated with buffer B (25 mM HEPES, pH 8.0, 20% glycerol, 500 mM NaCl, 0.5% Triton X-100, 15 mM imidazole, 5 mM βME). The sample was loaded at a flow rate of 1 mL/min. The column was washed with 15 column volumes of buffer C (same as buffer B except with 0.2% Triton X-100). The protein was eluted with 5 column volumes of buffer D (same as buffer C except with 200 mM Imidazole). […]

[2] = test system: HCV replicon (strain 1b) in HUH-7 cells; assay: HCV replicon FRET assay; assay type: cell-based; details: Hepatitis C virus
Excerpt: An HCV replicon whole cell system was established as described by Lohmann V, Korner F, Koch J, Herian U, Theilmann L, Bartenschlager R., Science 285(5424): 110-3 (1999). This system enabled us to evaluate the effects of our HCV Protease compounds on HCV RNA replication. Briefly, using the HCV strain 1b sequence described in the Lohmann paper (Assession number: AJ238799), an HCV cDNA was synthesized by Operon Technologies, Inc. (Alameda, Calif.), and the full-length replicon was then assembled in plasmid pGem9zf(+) (Promega, Madison, Wis.) using standard molecular biology techniques. The replicon consists of (i) the HCV 5′ UTR fused to the first 12 amino acids of the capsid protein, (ii) the neomycin phosphotransferase gene (neo), (iii) the IRES from encephalomyocarditis virus (EMCV), and (iv) HCV NS3 to NS5B genes and the HCV 3′ UTR. Plasmid DNAs were linearized with ScaI and RNA transcripts were synthesized in vitro using the T7 MegaScript transcription kit (Ambion, Austin, Tex.) according to manufacturer's directions. In vitro transcripts of the cDNA were transfected into the human hepatoma cell line, HUH-7. […] Resulting cell lines were characterized for positive and negative strand RNA production and protein production over time.
The HCV replicon FRET assay was developed to monitor the inhibitory effects of compounds described in the disclosure on HCV viral replication. HUH-7 cells, constitutively expressing the HCV replicon, were grown in Dulbecco's Modified Eagle Media (DMEM) (Gibco-BRL) containing 10% Fetal calf serum (FCS) (Sigma) and 1 mg/ml G418 (Gibco-BRL). Cells were seeded the night before (1.5×10^4 cells/well) in 96-well tissue-culture sterile plates. Compound and no compound controls were prepared in DMEM containing 4% FCS, 1:100 Penicillin/Streptomysin (Gibco-BRL), 1:100 L-glutamine and 5% DMSO in the dilution plate (0.5% DMSO final concentration in the assay). Compound/DMSO mixes were added to the cells and incubated for 4 days at 37° C. After 4 days, cells were first assessed for cytotoxicity using alamar Blue (Trek Diagnotstic Systems) for a CC50 reading. The toxicity of compound (CC50) was determined by adding 1/10th volume of alamar Blue to the media incubating the cells. After 4 h, the fluorescence signal from each well was read, with an excitation wavelength at 530 nm and an emission wavelength of 580 nm, using the Cytofluor Series 4000 (Perspective Biosystems). Plates were then rinsed thoroughly with Phosphate-Buffered Saline (PBS) (3 times 150 μl). The cells were lysed with 25 μl of a lysis assay reagent containing an HCV protease substrate (5× cell Luciferase cell culture lysis reagent (Promega #E153A) diluted to 1× with distilled water, NaCl added to 150 mM final, the FRET peptide substrate (as described for the enzyme assay above) diluted to 10 μM final from a 2 mM stock in 100% DMSO. The plate was then placed into the Cytofluor 4000 instrument which had been set to 340 nm excitation/490 nm emission, automatic mode for 21 cycles and the plate read in a kinetic mode. EC50 determinations were carried out as described for the IC50 determinations.

[3] = activity range symbols of Table 2
[4] = Huh-7, read-out: HCV Pro Replicon (EC50)

Compound	pIC50 [1, 3]	pEC50 [2, 4]	pIC50 ([1]; numeric cells of Table 2)	pEC50 ([2]; Huh-7, HCV replicon, numeric cells of Table 2, read-out: HCV Pro Replicon (EC50))
C=C[C@@H]1C[C@]1(NC(=O)[C@@H]1C[C@@](OC)(c2ccc(-c3ccccc3)cc2)CN1C(=O)[C@H](CC(C)C)NC(=O)OC(C)(C)C)C(=O)NS(=O)(=O)C1CC1 [Cmpd 203, {(S)-1-[(2S,4R)-4-Biphenyl-4-yl-2-((S)-(1R,2S)-1-cyclopropanesulfonylaminocarbonyl-2-vinyl-cyclopropylcarbamoyl)-4-methoxy-pyrrolidine-1-carbonyl]-3-methyl-butyl}-carbamic acid tert-butyl ester]	7.30 to 9.00	6.30 to 7.30	–	–
C=C[C@@H]1C[C@]1(NC(=O)[C@@H]1C[C@@](OC)(c2ccc(-c3ccccc3)cc2)CN1C(=O)[C@@H](NC(=O)OC12CC3CC(CC(C3)C1)C2)C(C)(C)C)C(=O)NS(=O)(=O)C1CC1 [Cmpd 204, {(S)-1-[(2S,4R)-4-Biphenyl-4-yl-2-((S)-(1R,2S)-1-cyclopropanesulfonylaminocarbonyl-2-vinyl-cyclopropylcarbamoyl)-4-methoxy-pyrrolidine-1-carbonyl]-2,2-dimethyl-propyl}-carbamic acid adamantan-1-yl ester]	7.30 to 9.00	7.30 to 9.00	–	–
C=CCCCCC[C@H](NC(=O)OC(C)(C)C)C(=O)N1C[C@](OC)(c2ccc(-c3ccccc3)cc2)C[C@H]1C(=O)N[C@]1(C(=O)NS(=O)(=O)C2CC2)C[C@H]1C=C [Cmpd 107]	6.30 to 7.30	< 6.30	–	–
C=C[C@@H]1C[C@]1(NC(=O)[C@@H]1C[C@@](OC)(c2ccc(-c3ccccc3)cc2)CN1C(=O)[C@@H](Nc1cccc(OC)c1)C(C)(C)C)C(=O)NS(=O)(=O)C1CC1 [Cmpd 207, (2S,4R)-4-Biphenyl-4-yl-4-methoxy-1-[(S)-2-(3-methoxy-phenylamino)-3,3-dimethyl-butyryl]-pyrrolidine-2-carboxylic acid ((1R,2S)-1-cyclopropanesulfonylaminocarbonyl-2-vinyl-cyclopropyl)-amide]	7.30 to 9.00	7.30 to 9.00	–	–
C=C[C@@H]1C[C@]1(NC(=O)[C@@H]1C[C@@](OC)(c2ccc(-c3ccccc3)cc2)CN1C(=O)[C@H](Nc1cccc(OC)c1)C(C)(C)C)C(=O)NS(=O)(=O)C1CC1 [Cmpd 208, (2S,4R)-4-Biphenyl-4-yl-4-methoxy-1-[(R)-2-(3-methoxy-phenylamino)-3,3-dimethyl-butyryl]-pyrrolidine-2-carboxylic acid ((1R,2S)-1-cyclopropanesulfonylaminocarbonyl-2-vinyl-cyclopropyl)-amide]	–	–	6.50	5.89
C=C[C@@H]1C[C@]1(NC(=O)[C@@H]1C[C@@](OC)(c2ccc(-c3ccccc3)cc2)CN1C(=O)[C@@H](NC(=O)OC(C)(C)C)C(C)CC)C(=O)NS(=O)(=O)C1CC1 (stereo partly drawn) [Cmpd 202, {(S)-1-[(2S,4R)-4-Biphenyl-4-yl-2-((S)-(1R,2S)-1-cyclopropanesulfonylaminocarbonyl-2-vinyl-cyclopropylcarbamoyl)-4-methoxy-pyrrolidine-1-carbonyl]-2-methyl-butyl}-carbamic acid tert-butyl ester]	7.30 to 9.00	6.30 to 7.30	–	–
COC1(c2ccc(-c3ccccc3)cc2)CC(C(=O)NC2(C(=O)NS(=O)(=O)C3CC3)CC2C(F)F)N(C(=O)C(NC(=O)OC(C)(C)C)C(C)(C)C)C1 (stereo not shown) [Cmpd 109]	7.30 to 9.00	6.30 to 7.30	–	–
CC[C@@H]1C[C@]1(NC(=O)[C@@H]1C[C@@](OC)(c2ccc(-c3ccccc3)cc2)CN1C(=O)[C@@H](NC(=O)OC(C)(C)C)C(C)(C)C)C(=O)NS(=O)(=O)C1CC1 [Cmpd 110]	7.30 to 9.00	6.30 to 7.30	–	–
